Measured values from US20250332178A1, “METHODS OF TREATING MYCOBACTERIAL INFECTIONS USING TETRACYCLINE COMPOUNDS” (priority 2018, published 2025).
Converted amounts (≈) assume the structure as drawn. Where two headings read alike, the source gives them in different places.

What was measured:
M. fortuitum group = assay: MIC (CLSI broth dilution), RGM isolates; format: cell-based; settings: Mycolicibacterium fortuitum, initial reading, generally 3-4 days, read-out: MIC, CLA Initial
M. smegmatis group = assay: MIC (CLSI broth dilution), RGM isolates; format: cell-based; settings: Mycolicibacterium smegmatis
M. chelonae = assay: MIC (CLSI broth dilution), RGM isolates; format: cell-based; settings: Mycobacteroides chelonae
M. immunogenum group = assay: MIC (CLSI broth dilution), RGM isolates; format: cell-based
M. mucogenium group = assay: MIC (CLSI broth dilution), RGM isolates; format: cell-based
[1] = test system: rapid-growing mycobacteria (RGM) isolates; assay: MIC (CLSI broth dilution), all RGM isolates; format: cell-based, nontuberculous mycobacteria

`CC[C@H]1OC(=O)[C@H](C)[C@@H](O[C@H]2C[C@@](C)(OC)[C@@H](O)[C@H](C)O2)[C@H](C)[C@@H](O[C@@H]2O[C@H](C)C[C@H](N(C)C)[C@H]2O)[C@](C)(OC)C[C@@H](C)C(=O)[C@H](C)[C@@H](O)[C@]1(C)O` [clarithromycin] showed an MIC (M. fortuitum group; isolate 29, M. porcinum/M. boenickei) of 4 µg/mL (≈ 5.35 µM), an MIC (M. fortuitum group; isolate 30, M. porcinum/M. boenickei) of 1 µg/mL (≈ 1.34 µM) and an MIC (M. fortuitum group; isolate 31, M. senegalense) of 0.12 µg/mL (≈ 0.16 µM). The MIC (M. fortuitum group; isolate 32, M. senegalense) was 0.12 µg/mL (≈ 0.16 µM), the MIC (M. fortuitum group; isolate 33, M. senegalense) was 0.12 µg/mL (≈ 0.16 µM) and the MIC (M. fortuitum group; isolate 34, M. senegalense) was at most 0.06 µg/mL. For the same compound, the MIC (M. smegmatis group; 144 h, isolate 49, M. goodii, extended reading (6 d), read-out: MIC, CLA Extended) was over 32 µg/mL, the MIC (M. smegmatis group; isolate 49, M. goodii, initial reading, generally 3-4 days, read-out: MIC, CLA Initial) was 16 µg/mL (≈ 21.4 µM) and the MIC (M. smegmatis group; isolate 50, M. wolinskyi, initial reading, generally 3-4 days, read-out: MIC, CLA Initial) was over 32 µg/mL. For the same compound, the MIC (M. chelonae; 336 h, isolate 18, M. chelonae, extended reading, up to/including 14 days, read-out: MIC, CLA Extended) was 2 µg/mL (≈ 2.67 µM), the MIC (M. chelonae; 336 h, isolate 19, M. chelonae, extended reading, up to/including 14 days, read-out: MIC, CLA Extended) was 0.5 µg/mL (≈ 0.668 µM) and the MIC (M. chelonae; 336 h, isolate 20, M. chelonae, extended reading, up to/including 14 days, read-out: MIC, CLA Extended) was 0.5 µg/mL (≈ 0.668 µM). The MIC (M. chelonae; 336 h, isolate 21, M. chelonae, extended reading, up to/including 14 days, read-out: MIC, CLA Extended) was 2 µg/mL (≈ 2.67 µM), the MIC (M. chelonae; 336 h, isolate 22, M. chelonae, extended reading, up to/including 14 days, read-out: MIC, CLA Extended) was 2 µg/mL (≈ 2.67 µM) and the MIC (M. chelonae; isolate 18, M. chelonae, initial reading, generally 3-4 days, read-out: MIC, CLA Initial) was 0.25 µg/mL (≈ 0.334 µM). It also gave an MIC (M. chelonae; isolate 19, M. chelonae, initial reading, generally 3-4 days, read-out: MIC, CLA Initial) of 0.25 µg/mL (≈ 0.334 µM), an MIC (M. chelonae; isolate 20, M. chelonae, initial reading, generally 3-4 days, read-out: MIC, CLA Initial) of 0.5 µg/mL (≈ 0.668 µM) and an MIC (M. chelonae; isolate 21, M. chelonae, initial reading, generally 3-4 days, read-out: MIC, CLA Initial) of 0.5 µg/mL (≈ 0.668 µM). It also gave an MIC (M. chelonae; isolate 22, M. chelonae, initial reading, generally 3-4 days, read-out: MIC, CLA Initial) of 1 µg/mL (≈ 1.34 µM), an MIC (M. immunogenum group; 336 h, isolate 35, M. immunogenum, extended reading, up to/including 14 days, read-out: MIC, CLA Extended) of 1 µg/mL (≈ 1.34 µM) and an MIC (M. immunogenum group; 336 h, isolate 36, M. immunogenum, extended reading, up to/including 14 days, read-out: MIC, CLA Extended) of 2 µg/mL (≈ 2.67 µM). The MIC (M. immunogenum group; 336 h, isolate 37, M. immunogenum, extended reading, up to/including 14 days, read-out: MIC, CLA Extended) was 2 µg/mL (≈ 2.67 µM), the MIC (M. immunogenum group; 336 h, isolate 38, M. immunogenum, extended reading, up to/including 14 days, read-out: MIC, CLA Extended) was 2 µg/mL (≈ 2.67 µM) and the MIC (M. immunogenum group; isolate 35, M. immunogenum, initial reading, generally 3-4 days, read-out: MIC, CLA Initial) was 0.25 µg/mL (≈ 0.334 µM). The MIC (M. immunogenum group; isolate 36, M. immunogenum, initial reading, generally 3-4 days, read-out: MIC, CLA Initial) was 0.12 µg/mL (≈ 0.16 µM), the MIC (M. immunogenum group; isolate 37, M. immunogenum, initial reading, generally 3-4 days, read-out: MIC, CLA Initial) was 1 µg/mL (≈ 1.34 µM) and the MIC (M. immunogenum group; isolate 38, M. immunogenum, initial reading, generally 3-4 days, read-out: MIC, CLA Initial) was 0.5 µg/mL (≈ 0.668 µM). It also gave an MIC (M. mucogenium group; 336 h, isolate 39, M. mucogenicum, extended reading, up to/including 14 days, read-out: MIC, CLA Extended) of 0.12 µg/mL (≈ 0.16 µM), an MIC (M. mucogenium group; 336 h, isolate 40, M. mucogenicum, extended reading, up to/including 14 days, read-out: MIC, CLA Extended) of 1 µg/mL (≈ 1.34 µM) and an MIC (M. mucogenium group; 336 h, isolate 41, M. mucogenicum, extended reading, up to/including 14 days, read-out: MIC, CLA Extended) of 1 µg/mL (≈ 1.34 µM). For the same compound, the MIC (M. mucogenium group; 336 h, isolate 42, M. mucogenicum, extended reading, up to/including 14 days, read-out: MIC, CLA Extended) was 0.12 µg/mL (≈ 0.16 µM), the MIC (M. mucogenium group; 336 h, isolate 43, M. phocaicum, extended reading, up to/including 14 days, read-out: MIC, CLA Extended) was 1 µg/mL (≈ 1.34 µM) and the MIC (M. mucogenium group; 336 h, isolate 44, M. phocaicum, extended reading, up to/including 14 days, read-out: MIC, CLA Extended) was 1 µg/mL (≈ 1.34 µM). For the same compound, the MIC (M. mucogenium group; 336 h, isolate 45, M. phocaicum, extended reading, up to/including 14 days, read-out: MIC, CLA Extended) was 1 µg/mL (≈ 1.34 µM), the MIC (M. mucogenium group; 336 h, isolate 46, M. phocaicum, extended reading, up to/including 14 days, read-out: MIC, CLA Extended) was 0.12 µg/mL (≈ 0.16 µM) and the MIC (M. mucogenium group; 336 h, isolate 47, M. phocaicum, extended reading, up to/including 14 days, read-out: MIC, CLA Extended) was 0.5 µg/mL (≈ 0.668 µM). The MIC (M. mucogenium group; 336 h, isolate 48, M. phocaicum, extended reading, up to/including 14 days, read-out: MIC, CLA Extended) was 0.5 µg/mL (≈ 0.668 µM), the MIC (M. mucogenium group; isolate 39, M. mucogenicum, initial reading, generally 3-4 days, read-out: MIC, CLA Initial) was at most 0.06 µg/mL and the MIC (M. mucogenium group; isolate 40, M. mucogenicum, initial reading, generally 3-4 days, read-out: MIC, CLA Initial) was 0.25 µg/mL (≈ 0.334 µM). The MIC (M. mucogenium group; isolate 41, M. mucogenicum, initial reading, generally 3-4 days, read-out: MIC, CLA Initial) was 0.5 µg/mL (≈ 0.668 µM), the MIC (M. mucogenium group; isolate 42, M. mucogenicum, initial reading, generally 3-4 days, read-out: MIC, CLA Initial) was at most 0.06 µg/mL and the MIC (M. mucogenium group; isolate 43, M. phocaicum, initial reading, generally 3-4 days, read-out: MIC, CLA Initial) was 0.25 µg/mL (≈ 0.334 µM). For the same compound, the MIC (M. mucogenium group; isolate 44, M. phocaicum, initial reading, generally 3-4 days, read-out: MIC, CLA Initial) was 0.25 µg/mL (≈ 0.334 µM), the MIC (M. mucogenium group; isolate 45, M. phocaicum, initial reading, generally 3-4 days, read-out: MIC, CLA Initial) was 0.25 µg/mL (≈ 0.334 µM) and the MIC (M. mucogenium group; isolate 46, M. phocaicum, initial reading, generally 3-4 days, read-out: MIC, CLA Initial) was at most 0.06 µg/mL. It also gave an MIC (M. mucogenium group; isolate 47, M. phocaicum, initial reading, generally 3-4 days, read-out: MIC, CLA Initial) of 0.25 µg/mL (≈ 0.334 µM), an MIC (M. mucogenium group; isolate 48, M. phocaicum, initial reading, generally 3-4 days, read-out: MIC, CLA Initial) of 0.12 µg/mL (≈ 0.16 µM) and an MIC50 ([1]; 336 h, all RGM isolates, extended reading, up to/including 14 days, read-out: MIC50, CLA Extended) of 2 µg/mL (≈ 2.67 µM). The MIC90 ([1]; 336 h, all RGM isolates, extended reading, up to/including 14 days, read-out: MIC90, CLA Extended) was over 32 µg/mL, the MIC50 ([1]; all 50 RGM isolates, initial reading, generally 3-4 days, read-out: MIC50, CLA Initial) was 0.25 µg/mL (≈ 0.334 µM) and the MIC90 ([1]; all 50 RGM isolates, initial reading, generally 3-4 days, read-out: MIC90, CLA Initial) was 2 µg/mL (≈ 2.67 µM).
